PMC7876106 (Scientific Reports, 2021)

Key:
[1] = tested on: telomere repeat DNA in LOX cells; test: Telomere length analysis (PFGE, Southern blot) of LOX cells; format: cell-based, human; conditions: for telomere repeat DNA signals: TLA
Description: Genomic DNA was isolated from cells using a genomic DNA purification kit (Promega) and digested with AluI and MboI. Digested genomic DNA was purified by phenol/choloroform extraction and quantified using a Qubit 4 Fluorometer (Thermal Scientific). Equal amounts of digested DNA (5 μg) were separated by pulse-field gel electrophoresis (PFGE) performed with a 1% agarose gel at 6V/cm, switch times from 1 to 12s, 15 °C for 12h using CHEF-DRIII system (Bio-Rad). The DNA was transferred to GeneScreen Plus blotting membranes (Perkin-Elmer) and analyzed by Southern blot. The blots were hybridized with a 32P-labeled telomere repeat or […]
Alu probe at 42 °C overnight, then washed twice for 5 min each with 0.2 M wash buffer (0.2 M Na2HPO4 pH 7.2, 1 mM EDTA, and 2% SDS) at room temperature and once for 10 min with 0.1 M wash buffer at 42°C. Relative telomere-repeat signals were determined by Typhoon 9410 Imager and ImageQuant TL software (GE Healthcare). Signal intensity represents the percentage decrease of average telomere signals relative to dox (-) or PP control. […]
100, 1 mM EDTA in 1x PBS) before immuno-staining. Primary antibodies were prepared in blocking solution at following dilutions: anti-53BP1 (1:500, IHC-00001; Bethyl Laboratories) and γH2AX (1:2,000, A300-081A; Bethyl Laboratories). After IF, cells were fixed in 4% paraformaldehyde in 1x PBS for 10 min, washed in 1x PBS, dehydrated in ethanol series (70%, 95%, 100%), and air-dried. Coverslips were denatured for 5 min at 80-85° C in hybridization mix [70% formamide, 10 mM Tris-HCl, pH 7.2, and 0.5% blocking solution (Roche)] containing telomeric PNA-Cy3-(CCCTAA)3 probe, and hybridization was continued for 2 hrs at room temperature in the dark moisturized chambers. Coverslips were washed twice for 15 min each with 70% formamide, 10 mM Tris-HCl (pH 7.2), and 0.1% BSA, and followed by three washes for 5 min each with 0.15 M NaCl, 0.1 M Tris-HCl (pH 7.2), and 0.08% Tween-20. Nuclei were counterstained with 0.1 µg/ml DAPI in blocking solution and coverslips mounted with VectorShield (Vector Laboratories). RNA FISH was performed as previously described 1.
Images were captured with a 100x lens on a Nikon E600 Upright microscope (Nikon

[2] = tested on: TeloDNA (unlabelled) (DNA, G4) TTAGGGTTAGGGTTAGGGTTAGGG; test: fluorescence polarization, displacement of TRF2 GAR peptide; conditions: 150 mM KCl, NaCl or LiCl (salt not specified); 20 mM HEPES; 20 mM HEPES pH 7.5, room temperature; FITC-TRF2 GAR peptide 10 nM displaced; 5 μM oligo
TERRA and TRF2 complex = test: FP inhibition assay, TRF2 GAR binding to TERRA; conditions: for IC50: FP, 10 nM peptide, 5 μM oligo; for Selectivity Ratio IC50 (Tel DNA/TERRA): ratio of FP IC50 values
Description: All the nucleic acids, peptides and chemicals were dissolved in buffer containing 20 mM HEPES pH7.5, 150 mM salt (KCl, NaCl, LiCl) at the stock concentration of 1 mM. For peptide and nucleic acid interactions, 25μL of each nucleic acids with a sequential twofold dilutions starting from 50 μM was added into each well of 96-well plate followed by adding 25μL of 10 nM FITC labeled TRF2 peptide. For compounds and nucleic acid interactions, 20μL of each compounds with a sequential twofold dilutions starting from 50 μM were added into each well of 96-well plate followed by adding 5μL of 20 ng/mL tRNA and 25μL of 10 nM FAM labeled nucleic acids. For inhibition assay, 5μL FITC labeled TRF2 GAR peptide (10 nM final concentration) and 10 μL oligos (5 μM final concentration) were mixed, followed by adding 5μL of each compound with a sequential twofold dilutions starting from 50 μM into each well of 384-well plate. All components were mixed thoroughly, and the plate was incubated at room temperature for 1 h before placing in an Envision Plate Reader for reading at 495/520 nm. All data curves were fitted using Prism 8.0.

[3] = tested on: TeloDNA (HTRF assay) (DNA, G4) TTAGGGTTAGGGTTAGGGTTAGGG; test: HTRF, disruption of TRF2 peptide complex; conditions: TRF2 GAR peptide displaced
G4 telomere DNA = test: ChIP with BG4 antibody for G4 telomere DNA in LOX cells; format: cell-based, human; conditions: 2 μM, 2 days
Description: DNA ChIP assays was performed as described previously 3 with minor modifications. Briefly, 1 x 10^7 LOX cells treated with indicated chemicals (2 µM) for 48 hrs were subject to ChIP analysis and immunoprecipitated DNA was assayed by DNA dot-blot using 32P-labeled (TTAGGG)4 or Alu probe. […]

TRF2-TERRA = test: HTRF assay, disruption of TERRA and TRF2 peptide interaction; format: binding; conditions: compared to BRACO-19
Description: Mei et al, 2020 TERRA Requires TRF2 GAR Domain
Homogenous Time Resolved Fluorescence (HTRF) assay
All material including peptide, nucleic acids and compounds were dissolved in buffer containing 20mM HEPES pH7.5 150mM KCl. To measure the direct interaction between peptide and nucleic acids, 5µL of FITC-labeled TRF2 GAR peptide was added into each 384 well with a sequential of 2-fold dilution starting from 200nM, 5µL of 10nM biotin-labeled nucleic acid was then added into the well and fixed with the peptide, 5µL of buffer was added to make each well contain 15µL solution. The plate was incubated at room temperature for 30 minutes, following by adding 5µL of streptavidin-Tb-cryptate (Cisbio, PerkinElmer) and the plate was then incubated at room temperature for another 30 minutes before measured by EnVision plate reader (330/520 nm). To measure the compound disruption on peptide and nucleic acids, 5µL of small molecule was added into each 384 well first with a sequential of 2-fold dilution starting from 5µM, followed by 5µL of 10nM nucleic acid and 100nM peptide and then the plate was incubated at room temperature for 30 minutes. The rest step was similar to the direct binding measurement assay. The curves were analyzed using Prism 8.0. […]
Total RNA was isolated as previously described by using TRIzol reagent (Invitrogen) 1. […] RNA concentration was determined by Nanodrop-2000 (ThermoFisher). […]

[4] = tested on: TERRA (HTRF assay) (RNA, G4) UUAGGGUUAGGGUUAGGGUUAGGG; test: HTRF, disruption of TRF2 peptide complex; conditions: TRF2 GAR peptide displaced

Row | Structure (SMILES) | telomere repeat DNA signals [1] | IC50 [2] [nM] | IC50 (TERRA and TRF2 complex) [nM] | Selectivity Ratio IC50 (Tel DNA/TERRA) (TERRA and TRF2 complex) | IC50 [3] [nM] | average telomere length ([1]; 2 μM, 2 and 3 days) | G4 telomere DNA (BG4 ChIP) relative to PP or PDS treated cells (G4 telomere DNA) | inhibition of TRF2-TERRA by HTRF (TRF2-TERRA) | IC50 [4] [nM]
1 | CN(C)c1ccc(Nc2c3ccc(NC(=O)CCN4CCCC4)cc3nc3cc(NC(=O)CCN4CCCC4)ccc23)cc1 [BRACO-19] | to a lesser extent | 40 | 240 | 0.17 | 7.00 ± 0.16 |  |  |  | 
2 | CCc1c(C)c2cc3nc(cc4nc(cc5c(CC)c(C)c(cc1[nH]2)n5C)C(C)=C4CCC(=O)O)C(CCC(=O)O)=C3C [NMM, N-methyl mesoporphyrin IX] | reduced telomere repeat DNA signals | 1000 | 420 | 2.38 |  | decrease in average telomere length | significant reduction in G4 telomere DNA | preferential inhibition of TRF2-TERRA | 1.7 ± 0.8
